Measured values published in PubChem BioAssay (NCI).
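All cell lines were grown in 96-well plates and treated with compound for 48 hours. GI50: concentration for 50% inhibition of growth. TGI: total growth inhibition.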

Experiments:
Experiment in all cases: NCI-60 cell line screen, 48 h
SF-268 CNS = system: SF-268 CNS
NCI-H522 lung = system: NCI-H522 lung
SW-620 colon = system: SW-620 colon
SK-MEL-5 melanoma = system: SK-MEL-5 melanoma
UACC-257 melanoma = system: UACC-257 melanoma
HT29 colon = system: HT29 colon
MDA-MB-435 = system: MDA-MB-435
HOP-92 NSCLC = system: HOP-92 NSCLC
NCI/ADR-RES ovarian = system: NCI/ADR-RES ovarian
UO-31 renal = system: UO-31 renal
786-0 renal = system: 786-0 renal
NCI-H226 lung = system: NCI-H226 lung

Compound | TGI (SF-268 CNS) | TGI (NCI-H522 lung) | TGI (SW-620 colon) | TGI (SK-MEL-5 melanoma) | TGI (UACC-257 melanoma) | TGI (HT29 colon) | TGI (MDA-MB-435) | TGI (HOP-92 NSCLC) | TGI (NCI/ADR-RES ovarian) | TGI (UO-31 renal) | TGI (786-0 renal) | TGI (NCI-H226 lung) | GI50 (SW-620 colon) | GI50 (MDA-MB-435) | GI50 (NCI/ADR-RES ovarian) | GI50 (UO-31 renal)
Cc1nc2ccc(Cl)cc2c(-n2ccnc2)c1CCn1ccnc1 | > 100 µM | 70.9 µM | > 100 µM | 46.4 µM | 61 µM | 41.7 µM | > 100 µM | 57.8 µM | 6.03 µM | 74.6 µM | 3.2 µM | 53.2 µM |  |  |  | 
CN(/N=C1\C(=O)Nc2ccccc21)c1ccccc1 | > 100 µM | > 100 µM | > 100 µM | > 100 µM | > 100 µM | > 100 µM | > 100 µM | > 100 µM |  | > 100 µM |  | > 100 µM |  |  |  | 
COc1cc([C@@H]2c3cc4c(cc3[C@@H](NC(=O)c3ccc(C#N)cc3)C3COC(=O)[C@@H]32)OCO4)cc(OC)c1O (stereo not given in full) | 16.9 µM | 2.39 µM | 10.7 µM |  | 20.1 µM | 4.23 µM |  | 22.9 µM |  | 15.3 µM | 16 µM | 0.508 µM |  |  |  | 
CN(C)c1nc(Oc2nc(N(C)C)nc(N(C)C)n2)nc(N(C)C)n1 | > 100 µM | > 100 µM | > 100 µM | > 100 µM | > 100 µM | > 100 µM |  | > 100 µM |  | > 100 µM | > 100 µM | > 100 µM |  |  |  | 
COC(=O)CCC(NC(=S)N/N=C/c1cccs1)C(=O)OC (stereo not given) | > 100 µM | > 100 µM | > 100 µM | > 100 µM | > 100 µM | > 100 µM |  | > 100 µM |  | > 100 µM | > 100 µM | > 100 µM |  |  |  | 
Cn1nc(-c2ccc(S(=O)(=O)/N=C(\NN)Nc3ccc(Cl)cc3)s2)cc1C(F)(F)F | 32.6 µM |  | 36.9 µM | 35.9 µM | 34 µM | 30.4 µM |  | 40.2 µM | 50.7 µM | 28 µM | 30.6 µM | 32.6 µM |  |  |  | 
Cc1cc([N+](=O)[O-])c(C)c2c1[nH]c1ccc(Cl)cc12 | > 100 µM | 46 µM | > 100 µM | > 100 µM | > 100 µM | > 100 µM |  |  |  | > 100 µM | > 100 µM | > 100 µM |  |  |  | 
O=c1cc(O)cc2n1CCC2 | > 100 µM | > 100 µM | > 100 µM | > 100 µM | > 100 µM | > 100 µM |  |  |  | > 100 µM | > 100 µM | > 100 µM |  |  |  | 
CC1CC(N2CCOCC2)=Nc2ccccc2N1C (stereo not given) | > 100 µM | > 100 µM | > 100 µM | > 100 µM | > 100 µM | > 100 µM | > 100 µM |  | > 100 µM | > 100 µM | > 100 µM | > 100 µM |  |  |  | 
CN(C)CCn1c(=O)c2ccc(NCCCN(C)CCCNc3ccc4c(=O)n(CCN(C)C)c(=O)n5c6ccc(O)cc6c(=O)c3c45)c3c(=O)c4cc(O)ccc4n(c1=O)c23 | 1.04 µM | 0.0802 µM |  | 0.171 µM | 1.23 µM | 1.05 µM | 0.18 µM |  | > 46.3 µM | 0.452 µM | 1.05 µM | 0.0488 µM |  |  |  | 
N#Cc1c(-c2ccc([N+](=O)[O-])cc2)cc(-c2ccc(Nc3ccnc4cc(Cl)ccc34)cc2)[nH]c1=O | > 100 µM | > 100 µM | > 100 µM |  |  |  | > 100 µM | > 100 µM | > 100 µM | > 100 µM | > 100 µM | > 100 µM |  |  |  | 
N#CNC(N)=NCc1ccccc1 | > 100 µM | > 100 µM |  | > 100 µM | > 100 µM | > 100 µM |  | > 100 µM |  | > 100 µM | > 100 µM | > 100 µM |  |  |  | 
COCOc1ccc(C(=O)Oc2cccc3c2OC(C)(C)O3)c(OCOC)c1 | > 100 µM |  | > 100 µM | > 100 µM | > 100 µM | > 100 µM | > 100 µM | > 100 µM | > 100 µM | > 100 µM | > 100 µM | > 100 µM |  |  |  | 
Cc1nnc2n(c1=O)CCCN2C | > 100 µM |  | > 100 µM | > 100 µM |  | > 100 µM | > 100 µM | > 100 µM |  | > 100 µM | > 100 µM | > 100 µM |  |  |  | 
O=C(c1ccco1)N(C(=O)N1CCCCC1)c1ccccc1 | > 100 µM |  | > 100 µM | > 100 µM | > 100 µM | > 100 µM | > 100 µM |  | > 100 µM | > 100 µM | > 100 µM | > 100 µM |  |  |  | 
Cc1ccc(-c2cc(-c3ccco3)c(C#N)c(=S)[nH]2)cc1 | > 100 µM | > 100 µM | > 100 µM | 61.9 µM |  | > 100 µM | 65.1 µM | > 100 µM | > 100 µM | > 100 µM | > 100 µM | > 100 µM |  |  |  | 
CCCCCCCC(=O)OCC(COC(=O)C(C)(C)C)OC(=O)Cc1ccccc1 (stereo not given) | > 100 µM |  | > 100 µM | > 100 µM |  |  |  | > 100 µM |  | > 100 µM | > 100 µM | > 100 µM |  |  |  | 
COc1cc2ccc3c4cc(OC)c(OC)cc4c[n+](C)c3c2cc1O | 7.23 µM | 78.7 µM | > 100 µM | > 100 µM | > 100 µM | > 100 µM |  | > 100 µM |  | > 100 µM | > 100 µM | > 100 µM |  |  |  | 
COc1ccc2c(c1)c1c(n2CCN2CCCCC2)-c2cccc(OC)c2CC1 | 48.8 µM | 18.8 µM | 42.5 µM | 45.5 µM | 38 µM | 17.6 µM | 31.5 µM |  | 41.5 µM | 24.7 µM | 55.4 µM | 24.1 µM |  |  |  | 
CCOC(=O)C1C(c2ccc(Cl)cc2Cl)NC(c2ccc(C)cc2)C(C(=O)OC)S1(=O)=O (stereo not given) | > 100 µM | > 100 µM | > 100 µM | > 100 µM | > 100 µM | > 100 µM |  | > 100 µM |  | > 100 µM | > 100 µM | > 100 µM |  |  |  | 
c1ccc(-c2c(-c3ccccc3)[n+](Cc3ccc4ccccc4c3)c(-c3ccc(-c4nc5ccccc5s4)cc3)n2Cc2ccc3ccccc3c2)cc1 |  |  | 0.764 µM |  |  |  | 0.557 µM |  | 2.61 µM | 0.872 µM |  |  | 0.14 µM | 0.209 µM | 1.07 µM | 0.28 µM
